Laboratory results: patent US20110201628A1, “HETEROCYCLIC JAK KINASE INHIBITORS” (priority 2008, published 2011)

These molecules were tested against T1, N-terminal GST-tagged, recombinant, human JAK2 (amino acids 831-1132) (Homo sapiens, UniProt O60674) (assay: JAK2 mobility shift assay on Caliper LC3000 (Method 2)). Settings: 0.3 nM JAK2 enzyme, 5 mM ATP, 1.5 μM SRCtide, 90 minutes room temperature.
T1 construct: human JAK2 (amino acids 831-1132, PLAZA database pAZB0359); GST (N); host or cells: insect cells
T1 sequence (O60674 831-1132): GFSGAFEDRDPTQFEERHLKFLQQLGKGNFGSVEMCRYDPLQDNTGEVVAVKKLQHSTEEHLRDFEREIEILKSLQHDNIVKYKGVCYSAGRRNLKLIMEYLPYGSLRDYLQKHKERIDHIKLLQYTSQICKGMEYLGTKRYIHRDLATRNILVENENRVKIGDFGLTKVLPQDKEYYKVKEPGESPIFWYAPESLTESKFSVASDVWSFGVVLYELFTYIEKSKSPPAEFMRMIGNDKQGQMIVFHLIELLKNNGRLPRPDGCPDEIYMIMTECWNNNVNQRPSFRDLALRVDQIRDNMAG
Type: biochemical
Protocol: Janus kinase 2 (JAK2) activity was also determined by measuring the kinase's ability to phosphorylate a tyrosine residue within a peptide substrate using a mobility shift assay on a Caliper LC3000 reader (Caliper, Hopkinton, Mass.), which measures fluorescence of the phosphorylated and unphosphorylated substrate and calculates a ratiometric value to determine percent turnover.
To measure JAK2 kinase activity, an in-house purified enzyme was used. […] After incubation of the kinase with a FAM labeled SRCtide substrate, adenosine triphosphate (ATP), and MgCl2 for 90 minutes at room temperature, the kinase reaction was stopped by the addition of 36 mM ethylenediaminetetraacetic acid (EDTA). The reaction was performed in 384 well microtitre plates and the reaction products were detected using the Caliper LC3000 Reader.

Compound	IC50
COc1cnc(C(C)Nc2nc(Nc3cn(C)cn3)c3cc[nH]c3n2)nc1 (racemic) [Example 27, N^2-[1-(5-Methoxypyrimidin-2-yl)ethyl]-N^4-(1-methyl-1H-imidazol-4-yl)-7H-pyrrolo[2,3-d]pyrimidine-2,4-diamine]	270 nM
CCn1ncc2c(Nc3cn(C)cn3)nc(NC(C)c3ncc(F)cn3)nc21 (single isomer, unassigned) [Example 9(b), 1-Ethyl-N^6-[1-(5-fluoropyrimidin-2-yl)ethyl]-N^4-(1-methyl-1H-imidazol-4-yl)-1H-pyrazolo[3,4-d]pyrimidine-4,6-diamine]	40 nM
CC(Nc1nc(Nc2cn(C)cn2)c2ccn(CCF)c2n1)c1ncc(F)cn1 (single isomer, unassigned) [Example 22(a), 7-(2-Fluoroethyl)-N^2-[1-(5-fluoropyrimidin-2-yl)ethyl]-N^4-(1-methyl-1H-imidazol-4-yl)-7H-pyrrolo[2,3-d]pyrimidine-2,4-diamine]	2320 nM
CC(Nc1nc(Nc2cn(C)cn2)c2ccn(CCF)c2n1)c1ncc(F)cn1 (single isomer, unassigned) [Example 22(b), 7-(2-Fluoroethyl)-N^2-[1-(5-fluoropyrimidin-2-yl)ethyl]-N^4-(1-methyl-1H-imidazol-4-yl)-7H-pyrrolo[2,3-d]pyrimidine-2,4-diamine]	7 nM
CC(Nc1nc(Nc2cn(C)cn2)c2ccn(C3CC3)c2n1)c1ncc(F)cn1 (single isomer, unassigned) [Example 24(b), 7-Cyclopropyl-N^2-[1-(5-fluoropyrimidin-2-yl)ethyl]-N^4-(1-methyl-1H-imidazol-4-yl)-7H-pyrrolo[2,3-d]pyrimidine-2,4-diamine]	27 nM
COc1cnc(C(C)Nc2nc(Nc3cn(C)cn3)c3cc[nH]c3n2)nc1 (single isomer, unassigned) [Example 27(a), N^2-[1-(5-Methoxypyrimidin-2-yl)ethyl]-N^4-(1-methyl-1H-imidazol-4-yl)-7H-pyrrolo[2,3-d]pyrimidine-2,4-diamine]	17600 nM

The next lines start with the values.

IC50	Compound
26 nM	CC(Nc1nc(Nc2cn(C)cn2)c2ccc(C(F)(F)F)nc2n1)c1ncc(F)cc1F (racemic) [Example 33, N^2-[1-(3,5-Difluoropyridin-2-yl)ethyl]-N^4-(1-methyl-1H-imidazol-4-yl)-7-(trifluoromethyl)pyrido[2,3-d]pyrimidine-2,4-diamine]
10 nM	CC(Nc1nc(Nc2cn(C)cn2)c2cc[nH]c2n1)c1ncc(F)cc1F (single isomer, unassigned) [Example 25(b), N^2-[1-(3,5-Difluoropyridin-2-yl)ethyl]-N^4-(1-methyl-1H-imidazol-4-yl)-7H-pyrrolo[2,3-d]pyrimidine-2,4-diamine]
80 nM	CC(Nc1nc(Nc2cn(C)cn2)c2cc(F)cnc2n1)c1ncc(F)cc1F (single isomer, unassigned) [Example 31(a), N^2-[1-(3,5-Difluoropyridin-2-yl)ethyl]-6-fluoro-N^4-(1-methyl-1H-imidazol-4-yl)pyrido[2,3-d]pyrimidine-2,4-diamine]
15000 nM	CC(Nc1nc(Nc2cn(C)cn2)c2cc(F)cnc2n1)c1ncc(F)cc1F (single isomer, unassigned) [Example 31(b), N^2-[1-(3,5-Difluoropyridin-2-yl)ethyl]-6-fluoro-N^4-(1-methyl-1H-imidazol-4-yl)pyrido[2,3-d]pyrimidine-2,4-diamine]
13 nM	C[C@H](Nc1nc(Nc2cn(C)cn2)c2cc(C(F)(F)F)[nH]c2n1)c1ncc(F)cn1 [Example 19, N^2-[(1S)-1-(5-Fluoropyrimidin-2-yl)ethyl]-N^4-(1-methyl-1H-imidazol-4-yl)-6-(trifluoromethyl)-7H-pyrrolo[2,3-d]pyrimidine-2,4-diamine]
13 nM	Cc1cc2c(Nc3cn(C)cn3)nc(N[C@@H](C)c3ncc(F)cn3)nc2[nH]1 [Example 20, N^2-[(1S)-1-(5-Fluoropyrimidin-2-yl)ethyl]-6-methyl-N^4-(1-methyl-1H-imidazol-4-yl)-7H-pyrrolo[2,3-d]pyrimidine-2,4-diamine]

The molecules below were run against T2, C-terminal His6-tagged, recombinant, human JAK2, amino acids 808-end (Homo sapiens, UniProt O60674) (assay: JAK2 kinase Alphascreen assay (Method 1)). Settings: Alphascreen, 150 pM JAK2 enzyme, 5 mM ATP, 80 nM Tyk2 peptide, 60 minutes room temperature; read-out: IC50 Assay (Method 1).
T2 construct: His6 (C); purchased Upstate Biotechnology MA; host or cells: baculovirus in Sf21 cells
T2 sequence (O60674 808-1132 limits assumed): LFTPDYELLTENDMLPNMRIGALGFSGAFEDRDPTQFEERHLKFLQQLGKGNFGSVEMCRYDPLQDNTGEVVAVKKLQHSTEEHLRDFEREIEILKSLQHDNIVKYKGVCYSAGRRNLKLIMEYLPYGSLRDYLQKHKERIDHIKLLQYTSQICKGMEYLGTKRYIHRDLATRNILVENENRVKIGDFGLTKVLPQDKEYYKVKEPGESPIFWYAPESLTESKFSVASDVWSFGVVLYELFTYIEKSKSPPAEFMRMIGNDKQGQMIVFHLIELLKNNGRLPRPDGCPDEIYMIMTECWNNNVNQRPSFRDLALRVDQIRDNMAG
Type: biochemical
Protocol: To measure JAK2 kinase activity, a commercially available purified enzyme may be used. […] After incubation of the kinase with a biotinylated substrate and adenosine triphosphate (ATP) for 60 minutes at room temperature, the kinase reaction may be stopped by the addition of 30 mM ethylenediaminetetraacetic acid (EDTA). The reaction may be performed in 384 well microtitre plates and the reaction products may be detected with the addition of streptavidin coated Donor Beads and phosphotyrosine-specific antibodies coated Acceptor Beads using the EnVision Multilabel Plate Reader after an overnight incubation at room temperature. “Tween 20” is a registered trademark of ICI Americas, Inc.

Compound	IC50
CC(Nc1nc(Nc2cn(C)cn2)c2ccccc2n1)c1ncc(F)cn1 (single isomer, unassigned) [Example 45(a), N^2-[1-(5-Fluoropyrimidin-2-yl)ethyl]-N^4-(1-methyl-1H-imidazol-4-yl)quinazoline-2,4-diamine]	64 nM
CC(Nc1nc(Nc2cn(C)cn2)c2ccccc2n1)c1ncc(F)cn1 (single isomer, unassigned) [Example 45(b), N^2-[1-(5-Fluoropyrimidin-2-yl)ethyl]-N^4-(1-methyl-1H-imidazol-4-yl)quinazoline-2,4-diamine]	3 nM
Cc1ccc(S(=O)(=O)n2ccc3c(Nc4cn(C)cn4)nc(N[C@@H](C)c4ncc(F)cn4)nc32)cc1 [Example 3, N^2-[(1S)-1-(5-Fluoropyrimidin-2-yl)ethyl]-N^4-(1-methyl-1H-imidazol-4-yl)-7-[(4-methylphenyl)sulfonyl]-7H-pyrrolo[2,3-d]pyrimidine-2,4-diamine]	213 nM
Cc1nc2c(Nc3cn(C)cn3)nc(N[C@@H](C)c3ncc(F)cn3)nc2s1 [Example 7, N^5-[(1S)-1-(5-Fluoropyrimidin-2-yl)ethyl]-2-methyl-N^7-(1-methyl-1H-imidazol-4-yl)[1,3]thiazolo[5,4-d]pyrimidine-5,7-diamine]	1900 nM
C[C@H](Nc1nc2c(c(Nc3cn(C)cn3)n1)CCC2)c1ncc(F)cn1 [Example 8, N^2-[(1S)-1-(5-Fluoropyrimidin-2-yl)ethyl]-N^4-(1-methyl-1H-imidazol-4-yl)-6,7-dihydro-5H-cyclopenta[d]pyrimidine-2,4-diamine]	16 nM
C[C@H](Nc1nc(Nc2cn(C)cn2)c2cnn(CCO)c2n1)c1ncc(F)cn1 [Example 15, 2-(6-{[(1S)-1-(5-Fluoropyrimidin-2-yl)ethyl]amino}-4-[(1-methyl-1H-imidazol-4-yl)amino]-1H-pyrazolo[3,4-d]pyrimidin-1-yl)ethanol]	3 nM
COc1ccc2nc(N[C@@H](C)c3ncc(F)cn3)nc(Nc3cn(C)cn3)c2c1 [Example 28, N^2-[(1S)-1-(5-Fluoropyrimidin-2-yl)ethyl]-6-methoxy-N^4-(1-methyl-1H-imidazol-4-yl)quinazoline-2,4-diamine]	670 nM

More lines, now with the values ahead:

IC50	Compound
1180 nM	CC(Nc1nc(Nc2cn(C)cn2)c2ccncc2n1)c1ncc(F)cc1F (single isomer, unassigned) [Example 43(b), N^2-[1-(3,5-Difluoropyridin-2-yl)ethyl]-N^4-(1-methyl-1H-imidazol-4-yl)pyrido[3,4-d]pyrimidine-2,4-diamine]
< 3 nM	C[C@H](Nc1nc(Nc2cn(C)cn2)c2[nH]ccc2n1)c1ncc(F)cn1 [Example 6, N^2-[(1S)-1-(5-Fluoropyrimidin-2-yl)ethyl]-N^4-(1-methyl-1H-imidazol-4-yl)-5H-pyrrolo[3,2-d]pyrimidine-2,4-diamine]
< 3 nM	C[C@H](Nc1nc(Nc2cn(C)cn2)c2cccnc2n1)c1ncc(F)cn1 [Example 16, N^2-[(1S)-1-(5-Fluoropyrimidin-2-yl)ethyl]-N^4-(1-methyl-1H-imidazol-4-yl)pyrido[2,3-d]pyrimidine-2,4-diamine]
4 nM	COc1ccc2c(Nc3cn(C)cn3)nc(N[C@@H](C)c3ncc(F)cn3)nc2c1 [Example 30, N^2-[(1S)-1-(5-Fluoropyrimidin-2-yl)ethyl]-7-methoxy-N^4-(1-methyl-1H-imidazol-4-yl)quinazoline-2,4-diamine]
3 nM	C[C@H](Nc1nc(Nc2cn(C)cn2)c2ccc(NC3CC3)nc2n1)c1ncc(F)cn1 [Example 36, N^7-Cyclopropyl-N^2-[(1S)-1-(5-fluoropyrimidin-2-yl)ethyl]-N^4-(1-methyl-1H-imidazol-4-yl)pyrido[2,3-d]pyrimidine-2,4,7-triamine]
3 nM	C[C@H](Nc1ccc2c(Nc3cn(C)cn3)nc(N[C@@H](C)c3ncc(F)cn3)nc2n1)c1ncc(F)cn1 [Example 39, N^2,N^7-bis[(1S)-1-(5-fluoropyrimidin-2-yl)ethyl]-N^4-(1-methyl-1H-imidazol-4-yl)pyrido[2,3-d]pyrimidine-2,4,7-triamine]
< 3 nM	C[C@H](Nc1nc(Nc2cn(C)cn2)c2ccc(Cl)nc2n1)c1ncc(F)cn1 [Example 42, 7-Chloro-N^2-[(1S)-1-(5-fluoropyrimidin-2-yl)ethyl]-N^4-(1-methyl-1H-imidazol-4-yl)pyrido[2,3-d]pyrimidine-2,4-diamine]
< 3 nM	C[C@H](Nc1nc(Nc2cn(C)cn2)c2ccccc2n1)c1ncc(F)cn1 [Example 45, N^2-[(1S)-1-(5-Fluoropyrimidin-2-yl)ethyl]-N^4-(1-methyl-1H-imidazol-4-yl)quinazoline-2,4-diamine]
21 nM	C[C@H](Nc1nc(Nc2cn(C)cn2)c2cn[nH]c2n1)c1ncc(F)cn1 [Example 46, N^6-[(1S)-1-(5-Fluoropyrimidin-2-yl)ethyl]-N^4-(1-methyl-1H-imidazol-4-yl)-1H-pyrazolo[3,4-d]pyrimidine-4,6-diamine]
